Experimental data from US10988477B2 (Merck Patent GmbH, priority 2018, dated 2021).

Target: GCN2 kinase (Homo sapiens, UniProt Q9P2K8)
Assay: GCN2 enzyme inhibition assay (Transcreener ADP2 fluorescence polarization)
Type: biochemical
Conditions: Enzyme activity for compounds of Formula IV; Ki(app), 280 μM ATP, 25° C.
Procedure, shortened: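 FP detection of ADP (antibody plus Alexa633 tracer) after a 1 h, 25 °C kinase reaction. Enzyme 4 nM, ATP 280 μM, (RS)7 peptide 200 μM, Tris pH 7.5 buffer with MgCl2 and DTT. Percent inhibition fitted by non-linear tight-binding algorithm for IC50 and Ki(app).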

Sequence of GCN2 kinase (Q9P2K8 whole entry): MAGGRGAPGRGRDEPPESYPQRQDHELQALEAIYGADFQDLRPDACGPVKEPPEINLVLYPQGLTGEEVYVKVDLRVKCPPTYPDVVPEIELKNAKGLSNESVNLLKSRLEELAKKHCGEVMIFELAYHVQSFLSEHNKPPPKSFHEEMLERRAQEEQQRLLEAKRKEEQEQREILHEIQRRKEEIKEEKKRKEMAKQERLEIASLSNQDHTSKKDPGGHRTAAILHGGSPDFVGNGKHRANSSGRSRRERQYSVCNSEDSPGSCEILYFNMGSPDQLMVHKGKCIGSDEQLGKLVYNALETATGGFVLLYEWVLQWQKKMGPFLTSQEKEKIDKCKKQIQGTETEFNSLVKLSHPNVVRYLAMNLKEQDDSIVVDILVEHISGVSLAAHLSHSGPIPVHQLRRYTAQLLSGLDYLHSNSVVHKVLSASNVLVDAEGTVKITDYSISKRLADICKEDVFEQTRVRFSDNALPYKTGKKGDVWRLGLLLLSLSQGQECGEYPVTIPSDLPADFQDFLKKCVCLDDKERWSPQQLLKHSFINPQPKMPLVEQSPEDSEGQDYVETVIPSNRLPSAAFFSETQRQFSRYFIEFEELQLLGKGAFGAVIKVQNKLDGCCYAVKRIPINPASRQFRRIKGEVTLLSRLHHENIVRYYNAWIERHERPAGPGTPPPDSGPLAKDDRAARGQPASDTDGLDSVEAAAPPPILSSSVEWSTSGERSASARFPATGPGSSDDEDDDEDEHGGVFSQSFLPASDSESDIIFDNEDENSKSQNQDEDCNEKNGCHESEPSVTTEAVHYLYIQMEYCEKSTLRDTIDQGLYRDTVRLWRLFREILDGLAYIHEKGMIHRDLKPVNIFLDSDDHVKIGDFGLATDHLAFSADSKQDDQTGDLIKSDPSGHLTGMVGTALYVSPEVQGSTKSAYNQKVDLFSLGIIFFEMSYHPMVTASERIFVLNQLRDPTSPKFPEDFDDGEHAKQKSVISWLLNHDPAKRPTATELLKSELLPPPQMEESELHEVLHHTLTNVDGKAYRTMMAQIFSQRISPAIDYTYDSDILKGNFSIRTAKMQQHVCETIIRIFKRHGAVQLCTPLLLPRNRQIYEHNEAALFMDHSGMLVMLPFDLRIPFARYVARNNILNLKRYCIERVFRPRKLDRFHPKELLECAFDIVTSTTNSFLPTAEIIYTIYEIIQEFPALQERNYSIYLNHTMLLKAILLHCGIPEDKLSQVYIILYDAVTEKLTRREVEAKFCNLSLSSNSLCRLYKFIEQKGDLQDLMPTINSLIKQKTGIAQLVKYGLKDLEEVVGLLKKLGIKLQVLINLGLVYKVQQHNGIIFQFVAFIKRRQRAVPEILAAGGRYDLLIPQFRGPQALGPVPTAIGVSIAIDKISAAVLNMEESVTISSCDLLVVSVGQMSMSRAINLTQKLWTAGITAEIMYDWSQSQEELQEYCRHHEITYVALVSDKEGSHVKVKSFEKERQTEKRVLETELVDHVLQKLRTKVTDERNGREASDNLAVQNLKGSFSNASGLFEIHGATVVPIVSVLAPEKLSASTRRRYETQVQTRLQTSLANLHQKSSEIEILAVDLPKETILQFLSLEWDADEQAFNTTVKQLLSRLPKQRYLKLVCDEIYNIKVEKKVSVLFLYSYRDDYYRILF

Row | Structure (SMILES) | Ki
1 | CS(=O)(=O)CC1CCCN(c2ccnc(-c3cnc4cnc(C(F)(F)F)cn34)n2)C1 (stereo not drawn) [IV-482, 3-(4-(3-((Methylsulfonyl)methyl)piperidin-1-yl)pyrimidin-2-yl)-6-(trifluoromethyl)imidazo[1,2-a]pyrazine] | 100 to 1000 nM
2 | CS(=O)(=O)C1CCCN(c2ccnc(-c3cnc4cnc(C(F)(F)F)cn34)n2)C1 (stereo not drawn) [IV-483, 3-(4-(3-(Methylsulfonyl)piperidin-1-yl)pyrimidin-2-yl)-6-(trifluoromethyl)imidazo[1,2-a]pyrazine] | 100 to 1000 nM
3 | FC(F)(F)c1cn2c(-c3ccnc(N4CCCC(c5c[nH]cn5)C4)n3)cnc2cn1 (stereo not drawn) [IV-484, 3-(2-(3-(1H-Imidazol-4-yl)piperidin-1-yl)pyrimidin-4-yl)-6-(trifluoromethyl)imidazo[1,2-a]pyrazine] | 10 to 100 nM
4 | NCCC1CN(c2ccnc(-c3cnc4cnc(C(F)(F)F)cn34)n2)CCO1 (stereo not drawn) [IV-486] | 100 to 1000 nM
5 | NCC1CCN(c2ccnc(-c3cnc4cnc(C(F)(F)F)cn34)n2)CC1 [IV-487] | 100 to 1000 nM
6 | NCC1CN(c2ccnc(-c3cnc4cnc(C(F)(F)F)cn34)n2)CCO1 (stereo not drawn) [IV-489] | 100 to 1000 nM
7 | O=C1CN(C2CCCN(c3ccnc(-c4cnc5cnc(C(F)(F)F)cn45)n3)C2)CCN1 (stereo not drawn) [IV-490, 4-(1-(2-(6-(Trifluoromethyl)imidazo[1,2-a]pyrazin-3-yl)pyrimidin-4-yl)piperidin-3-yl)piperazin-2-one] | 100 to 1000 nM
8 | FC(F)(F)c1cn2c(-c3nccc(N4CCCC5(CCOC5)C4)n3)cnc2cn1 (stereo not drawn) [IV-496, 7-(2-(6-(Trifluoromethyl)imidazo[1,2-a]pyrazin-3-yl)pyrimidin-4-yl)-2-oxa-7-azaspiro[4.5]decane] | 100 to 1000 nM
9 | FC(F)(F)c1cn2c(-c3nccc(N4CC5CCOC5C4)n3)cnc2cn1 (stereo not drawn) [IV-497, 5-(2-(6-(Trifluoromethyl)imidazo[1,2-a]pyrazin-3-yl)pyrimidin-4-yl)hexahydro-2H-furo[2,3-a]pyrrole] | 100 to 1000 nM
10 | NC(C1CCCN(c2ccnc(-c3cnc4cnc(C(F)(F)F)cn34)n2)C1)C(F)(F)F (stereo not drawn) [IV-502, 2,2,2-Trifluoro-1-(1-(2-(6-(trifluoromethyl)imidazo[1,2-a]pyrazin-3-yl)pyrimidin-4-yl)piperidin-3-yl)ethan-1-amine] | 100 to 1000 nM
11 | NC(C1CCCN(c2ccnc(-c3cnc4cnc(C(F)(F)F)cn34)n2)C1)C(F)(F)F (stereo not drawn) [IV-503, 2,2,2-Trifluoro-1-(1-(2-(6-(trifluoromethyl)imidazo[1,2-a]pyrazin-3-yl)pyrimidin-4-yl)piperidin-3-yl)ethan-1-amine] | 100 to 1000 nM
12 | FC(F)(F)c1cn2c(-c3nccc(N4CCN5CCOCC5C4)n3)cnc2cn1 (stereo not drawn) [IV-504, 8-(2-(6-(Trifluoromethyl)imidazo[1,2-a]pyrazin-3-yl)pyrimidin-4-yl)octahydropyrazino[2,1-a][1,4]oxazine] | 100 to 1000 nM
13 | FC(F)(F)c1cn2c(-c3nccc(N4CCCC5(CCOCC5)C4)n3)cnc2cn1 [IV-505, 2-(2-(6-(Trifluoromethyl)imidazo[1,2-a]pyrazin-3-yl)pyrimidin-4-yl)-9-oxa-2-azaspiro[5.5]undecane] | 100 to 1000 nM
14 | CC(C)(C)C1OCN2CCN(c3ccnc(-c4cnc5cnc(C(F)(F)F)cn45)n3)CC12 (stereo not drawn) [IV-506, 1-(tert-Butyl)-7-(2-(6-(trifluoromethyl)imidazo[1,2-a]pyrazin-3-yl)pyrimidin-4-yl)hexahydro-3H-oxazolo[3,4-a]pyrazine] | 100 to 1000 nM
15 | FC(F)(F)c1cn2c(-c3nccc(N4CCC(C5CCOCC5)C4)n3)cnc2cn1 (stereo not drawn) [IV-507, 3-(4-(3-(Tetrahydro-2H-pyran-4-yl)pyrrolidin-1-yl)pyrimidin-2-yl)-6-(trifluoromethyl)imidazo[1,2-a]pyrazine] | 100 to 1000 nM
16 | FC(F)(F)c1cn2c(-c3nccc(N4CCC(C5COC5)C4)n3)cnc2cn1 (stereo not drawn) [IV-508, 3-(4-(3-(Oxetan-3-yl)pyrrolidin-1-yl)pyrimidin-2-yl)-6-(trifluoromethyl)imidazo[1,2-a]pyrazine] | 100 to 1000 nM
17 | COCC1CCCCN(c2ccnc(-c3cnc4cnc(C(F)(F)F)cn34)n2)C1 (stereo not drawn) [IV-509, 3-(4-(3-(Methoxymethyl)azepan-1-yl)pyrimidin-2-yl)-6-(trifluoromethyl)imidazo[1,2-a]pyrazine] | 100 to 1000 nM
18 | FC(F)(F)c1cn2c(-c3nccc(N4CCC(CN5CCOCC5)CC4)n3)cnc2cn1 [IV-510, 4-((1-(2-(6-(Trifluoromethyl)imidazo[1,2-a]pyrazin-3-yl)pyrimidin-4-yl)piperidin-4-yl)methyl)morpholine] | 100 to 1000 nM
19 | FC(F)(F)c1cn2c(-c3nccc(N4CCC5(CC4)COC5)n3)cnc2cn1 [IV-511, 7-(2-(6-(Trifluoromethyl)imidazo[1,2-a]pyrazin-3-yl)pyrimidin-4-yl)-2-oxa-7-azaspiro[3.5]nonane] | 100 to 1000 nM
20 | COCC1CCN(c2ccnc(-c3cnc4cnc(C(F)(F)F)cn34)n2)CC1 [IV-512, 3-(4-(4-(Methoxymethyl)piperidin-1-yl)pyrimidin-2-yl)-6-(trifluoromethyl)imidazo[1,2-a]pyrazine] | 100 to 1000 nM

Row | Structure (SMILES) | Ki
21 | N#CC1CCN(c2ccnc(-c3cnc4cnc(C(F)(F)F)cn34)n2)CC1 [IV-513, 1-(2-(6-(Trifluoromethyl)imidazo[1,2-a]pyrazin-3-yl)pyrimidin-4-yl)piperidine-4-carbonitrile] | 100 to 1000 nM
22 | N#CCC1CCCN(c2ccnc(-c3cnc4cnc(C(F)(F)F)cn34)n2)C1 (stereo not drawn) [IV-514, 2-(1-(2-(6-(Trifluoromethyl)imidazo[1,2-a]pyrazin-3-yl)pyrimidin-4-yl)piperidin-3-yl)acetonitrile] | 100 to 1000 nM
23 | O=C1NC[C@@H]2CCN(c3ccnc(-c4cnc5cnc(C(F)(F)F)cn45)n3)C[C@H]12 [IV-515, (3aR,7aR)-5-(2-(6-(Trifluoromethyl)imidazo[1,2-a]pyrazin-3-yl)pyrimidin-4-yl)octahydro-3H-pyrrolo[3,4-a]pyridin-3-one] | 100 to 1000 nM
24 | N#CC1CCCN(c2ccnc(-c3cnc4cnc(C(F)(F)F)cn34)n2)C1 (stereo not drawn) [IV-516, 1-(2-(6-(Trifluoromethyl)imidazo[1,2-a]pyrazin-3-yl)pyrimidin-4-yl)piperidine-3-carbonitrile] | 100 to 1000 nM
25 | CC1CCN(c2ccnc(-c3cnc4cnc(C(F)(F)F)cn34)n2)CC1 [IV-517, 3-(4-(4-Methylpiperidin-1-yl)pyrimidin-2-yl)-6-(trifluoromethyl)imidazo[1,2-a]pyrazine] | 100 to 1000 nM
26 | CC1CCCCN1c1ccnc(-c2cnc3cnc(C(F)(F)F)cn23)n1 (stereo not drawn) [IV-518, 3-(4-(2-Methylpiperidin-1-yl)pyrimidin-2-yl)-6-(trifluoromethyl)imidazo[1,2-a]pyrazine] | 10 to 100 nM
27 | CC1CCCN(c2ccnc(-c3cnc4cnc(C(F)(F)F)cn34)n2)C1C (stereo not drawn) [IV-519, 3-(4-(2,3-Dimethylpiperidin-1-yl)pyrimidin-2-yl)-6-(trifluoromethyl)imidazo[1,2-a]pyrazine] | 10 to 100 nM
28 | CC(C)(O)C1CCN(c2ccnc(-c3cnc4cnc(C(F)(F)F)cn34)n2)C1 (stereo not drawn) [IV-520, 2-(1-(2-(6-(Trifluoromethyl)imidazo[1,2-a]pyrazin-3-yl)pyrimidin-4-yl)pyrrolidin-3-yl)propan-2-ol] | 100 to 1000 nM
29 | FC(F)(F)c1cn2c(-c3nccc(N4CCC5(CCOCC5)C4)n3)cnc2cn1 [IV-522, 2-(2-(6-(Trifluoromethyl)imidazo[1,2-a]pyrazin-3-yl)pyrimidin-4-yl)-8-oxa-2-azaspiro[4.5]decane] | 100 to 1000 nM
30 | FC(F)(F)c1cn2c(-c3nccc(N4CCCC5(COC5)C4)n3)cnc2cn1 [IV-523, 6-(2-(6-(Trifluoromethyl)imidazo[1,2-a]pyrazin-3-yl)pyrimidin-4-yl)-2-oxa-6-azaspiro[3.5]nonane] | 100 to 1000 nM
31 | CC(=O)NCC1CCCN(c2ccnc(-c3cnc4cnc(C(F)(F)F)cn34)n2)C1 (stereo not drawn) [IV-526, N-((1-(2-(6-(Trifluoromethyl)imidazo[1,2-a]pyrazin-3-yl)pyrimidin-4-yl)piperidin-3-yl)methyl)acetamide] | 100 to 1000 nM
32 | NC(=O)NCC1CCCN(c2ccnc(-c3cnc4cnc(C(F)(F)F)cn34)n2)C1 (stereo not drawn) [IV-527, 1-((1-(2-(6-(Trifluoromethyl)imidazo[1,2-a]pyrazin-3-yl)pyrimidin-4-yl)piperidin-3-yl)methyl)urea] | 100 to 1000 nM
33 | CC(=O)NC1CCN(c2ccnc(-c3cnc4cnc(C(F)(F)F)cn34)n2)C1 (stereo not drawn) [IV-528, N-(1-(2-(6-(Trifluoromethyl)imidazo[1,2-a]pyrazin-3-yl)pyrimidin-4-yl)pyrrolidin-3-yl)acetamide] | 100 to 1000 nM
34 | NC(=O)CC1CCCN(c2ccnc(-c3cnc4cnc(C(F)(F)F)cn34)n2)C1 (stereo not drawn) [IV-529, 2-(1-(2-(6-(Trifluoromethyl)imidazo[1,2-a]pyrazin-3-yl)pyrimidin-4-yl)piperidin-3-yl)acetamide] | 100 to 1000 nM
35 | CC(=O)NC1CCCN(c2ccnc(-c3cnc4cnc(C(F)(F)F)cn34)n2)C1 (stereo not drawn) [IV-530, N-(1-(2-(6-(Trifluoromethyl)imidazo[1,2-a]pyrazin-3-yl)pyrimidin-4-yl)piperidin-3-yl)acetamide] | 100 to 1000 nM
36 | CC1(C)CN(c2ccnc(-c3cnc4cnc(C(F)(F)F)cn34)n2)CCO1 [IV-531, 2,2-Dimethyl-4-(2-(6-(trifluoromethyl)imidazo[1,2-a]pyrazin-3-yl)pyrimidin-4-yl)morpholine] | 100 to 1000 nM
37 | CC1(C)COCCN1c1ccnc(-c2cnc3cnc(C(F)(F)F)cn23)n1 [IV-532, 3,3-Dimethyl-4-(2-(6-(trifluoromethyl)imidazo[1,2-a]pyrazin-3-yl)pyrimidin-4-yl)morpholine] | 100 to 1000 nM
38 | O=C1NCCC12CCN(c1ccnc(-c3cnc4cnc(C(F)(F)F)cn34)n1)C2 (stereo not drawn) [IV-533, 7-(2-(6-(Trifluoromethyl)imidazo[1,2-a]pyrazin-3-yl)pyrimidin-4-yl)-2,7-diazaspiro[4.4]nonan-1-one] | 100 to 1000 nM
39 | O=C1CC2(CCN(c3ccnc(-c4cnc5cnc(C(F)(F)F)cn45)n3)C2)CN1 (stereo not drawn) [IV-534, 7-(2-(6-(Trifluoromethyl)imidazo[1,2-a]pyrazin-3-yl)pyrimidin-4-yl)-2,7-diazaspiro[4.4]nonan-3-one] | 100 to 1000 nM
